Key:
cMyc mRNA = cMyc mRNA levels in different cell lines; assay type: cell-based
Procedure: (§1) Primers were calibrated for several Igf2bp1 RNA targets (Table 3): […]
(§2) Cells were grown for 12 hours in 12 well plates prior to incubation with the compound at different concentrations for an additional 12 or 24 hours. Total RNA was then extracted using EZ-RNA total RNA isolation kit (Biological Industries) and cDNA prepared from the RNA using the First Strand cDNA Synthesis kit (Quanta bio). Real time PCR was performed with Fast SYBR Green Master Mix (Thermo Fisher Scientific), and cDNA expression analyzed with the Bio-Rad CFX Manager 3.1.

ES2 cells [1] = assay: Real-time PCR of steady state RNA levels in ES2 cells; assay type: cell-based, human; set-up: dose or concentration left out as unconfirmed
Procedure: as §1, §2

ES2 cells [2] = assay: Cell proliferation assay (Incucyte), ES2 cells; assay type: cell-based, human; set-up: dose or concentration left out as unconfirmed; conditions: ES2, up
Procedure: (§3) ES2, H1299 and HEK293 cells were seeded in a 96 well plate (5×10^3 cells per well) for 24 hours before adding the compound at increasing concentrations. After an additional 24 hours, the plate was incubated in an IncuCyte® S3 Live-Cell Analysis System (Essen BioScience). The wells were filmed for 72 hours, and then analyzed for proliferation rate Using IncuCyte® S3 Live-Cell Analysis System (Essen BioScience)

H1299 cells [3] = assay: Cytotoxicity and cell viability, H1299 cells; assay type: cell-based, human; set-up: Cell viability: dose or concentration left out as unconfirmed
H1299 cells [4] = assay: Real-time PCR of steady state RNA levels in H1299 cells; assay type: cell-based, human
Procedure: as §1, §2

Igf2bp1 RRM12 di-domain = molecular target: T1, Igf2bp1 RRM12 di-domain (Homo sapiens, UniProt Q9NZI8); assay: MST binding to Igf2bp1 di-domain RRM12
T1 construct: RRM12 (M1-P188); 6xHis (N, cleaved yes); made in house; host or cells: E. coli BL21(DE3)
T1 sequence (Q9NZI8 1-188): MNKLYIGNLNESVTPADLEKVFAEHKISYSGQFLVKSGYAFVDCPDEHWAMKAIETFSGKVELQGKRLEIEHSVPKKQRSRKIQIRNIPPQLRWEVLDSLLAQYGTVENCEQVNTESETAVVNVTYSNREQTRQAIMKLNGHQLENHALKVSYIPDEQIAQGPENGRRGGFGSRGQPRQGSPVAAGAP
Procedure: (§4) Recombinant full-length Igf2bp1 protein was labelled with RED-tris-NTA dye using a Monolith NT His-Tag Labelling Kit (NanoTemper) while RRM12, KH12 and KH34 di-domain peptides were labelled using the Protein Labeling Kit RED NHS 2nd generation (NanoTemper). Labelled proteins were spun at 15,000 g for 5 min to eliminate aggregates. All samples were 2× labelled protein mix of Igf2bp1 (200 nM) in PBST and were combined (1:1) with serial dilutions of compound or Kras6 RNA in binding buffer (10 mMTris pH=7.5, 100 mM NaCl, 0.1 mM EDTA, 0.06% IPEGAL, 0.02 μg/μL tRNA, 2 mM DTT, 0.1 μg/μL heparin) in final volume of 20 μL, room temperature for 15 min. Samples were then loaded into standard capillaries (NanoTemper) and read in the Monolith NT.115 scanner (NanoTemper) using the red filter with reading conditions of 95% LED power and 40% MST power, 5 sec fluorescence before, 30 sec MST on, 5 sec fluorescence after and 25 sec delay between samples. Results were analyzed using the MO Control software (NanoTemper) for curve fitting to KD.

H1299 cells [5] = assay: Cell proliferation assay (Incucyte), H1299 cells; assay type: cell-based, human; conditions: H1299, up to 20 mM 7773
Procedure: as §3

ES2 cells [6] = assay: Wound healing (cell migration) assay, ES2 cells; assay type: cell-based, human
Procedure: (§5) Cells were seeded in 96 IncuCyte® ImageLock plates (20×10^3 cells per well) for 24 hours, to a near confluency of 95%, before the addition of increasing concentrations of compound. After a further 24 hours, wells were scratched using the IncuCyte® 96-well WoundMaker Tool, and the cells cultured for an additional 48 hours using the IncuCyte® S3 Live-Cell Analysis System (Essen BioScience). The plate was imaged at increments of 120 minutes for a period of 48 hours, and then analyzed for relative wound healing.

[7] = test system: LKR-M cells transfected with GFP alone; assay: Wound healing assay, LKR-M cells expressing GFP alone; assay type: cell-based, mouse; conditions: 20 mM 7773 vs DMSO
Procedure: as §5

[8] = test system: Kras protein in H1299 cells; assay: Western blot of Kras protein in H1299 cells; assay type: cell-based, human; conditions: H1299, 10 and 20 μM 7773, 48 hours
Procedure: Western blots were performed as previously described. For fluorescent westerns, cell lysates were prepared with phosphatase inhibitors (β-Glycerophosphate and Sodium orthovanadate) and a protease inhibitor (cOmplete™, Mini Protease Inhibitor Cocktail, Roche 04693124001), membranes were read using a Li-Core Odyssey laser scanner, and results analyzed using Image Studio Lite software.
The following primary antibodies were used: mouse anti-total ERK (p44/42 MAPK (Erk1/2) L34F12 Cell Signaling 4696s), mouse anti-Kras (CPTC-KRAS4B-2, DSHB) rabbit anti-dpERK, (p44/42 MAPK, Cell Signaling 4370), rabbit anti-alpha/beta tubulin (Cell Signaling 2148), goat anti-rabbit IgG-HRP (Jackson), goat anti-mouse IgG-HRP (Jackson). Secondary antibodies for fluorescent westerns: donkey anti-mouse 800 (Rockland 610-732-124), goat anti-rabbit 680 (Molecular Probes A21076).

HEK293 cells [9] = assay: Wound healing (cell migration) assay, HEK293 cells; assay type: cell-based, human
Procedure: as §5

Igf2bp1 KH34 di-domain = molecular target: T2, Igf2bp1 KH34 di-domain (Homo sapiens, UniProt Q9NZI8); assay: MST binding to Igf2bp1 di-domain KH34
T2 construct: KH34 (P387-A574); 6xHis (N, cleaved yes); made in house; host or cells: E. coli BL21(DE3)
T2 sequence (Q9NZI8 387-574): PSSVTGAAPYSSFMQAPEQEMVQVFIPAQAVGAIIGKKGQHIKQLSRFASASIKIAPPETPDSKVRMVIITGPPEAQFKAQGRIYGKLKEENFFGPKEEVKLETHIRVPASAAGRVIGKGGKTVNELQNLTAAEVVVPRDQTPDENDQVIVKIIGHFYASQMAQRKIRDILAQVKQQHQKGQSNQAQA
Procedure: as §4

HEK293 cells [10] = assay: Cell proliferation assay (Incucyte), HEK293 cells; assay type: cell-based, human; set-up: dose or concentration left out as unconfirmed; conditions: HEK293, 7773
Procedure: as §3

Igf2bp2 = molecular target: T3, Igf2bp2 (Homo sapiens, UniProt Q9Y6M1); assay: MST binding to Igf2bp2; conditions: even at concentrations that almost saturate binding to Igf2bp1
T3 construct: His tag (C); made in house; host or cells: E. coli BL21(DE3)
T3 sequence (Q9Y6M1 whole entry, species assumed): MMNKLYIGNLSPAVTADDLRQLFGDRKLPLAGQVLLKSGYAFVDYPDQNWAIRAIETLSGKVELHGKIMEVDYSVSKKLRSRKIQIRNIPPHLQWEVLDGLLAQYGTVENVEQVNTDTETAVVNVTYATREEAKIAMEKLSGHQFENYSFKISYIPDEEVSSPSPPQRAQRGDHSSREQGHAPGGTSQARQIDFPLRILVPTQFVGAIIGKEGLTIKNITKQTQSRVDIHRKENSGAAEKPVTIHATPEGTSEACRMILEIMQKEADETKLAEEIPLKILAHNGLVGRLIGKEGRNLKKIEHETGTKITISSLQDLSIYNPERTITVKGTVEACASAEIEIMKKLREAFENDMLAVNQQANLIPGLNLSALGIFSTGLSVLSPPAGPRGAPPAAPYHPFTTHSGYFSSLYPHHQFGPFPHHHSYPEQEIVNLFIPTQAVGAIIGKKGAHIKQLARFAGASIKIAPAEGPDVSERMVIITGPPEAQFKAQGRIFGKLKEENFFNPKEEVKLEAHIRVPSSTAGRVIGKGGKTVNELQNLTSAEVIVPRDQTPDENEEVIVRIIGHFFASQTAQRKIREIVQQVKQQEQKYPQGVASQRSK

H1299 cells [11] = assay: Wound healing (cell migration) assay, H1299 cells; assay type: cell-based, human
Procedure: as §5

Compound: O=C(c1ccc(Cn2cnnn2)cc1)N1CCCC(Nc2ccc3c(c2)OCO3)C1 (centres unmarked) [Compound 7773]
- Reduction of cMyc mRNA levels (cMyc mRNA): 50-60%
- Steady state levels of CD44, Kras, cMyc and SRF RNA (ES2 cells [1]; ES2, 7773, 12 hours): reduced
- Steady state level of CD44 RNA (ES2 cells [1]; ES2, 7773, 12 hours, appeared to recover after 24 hours): strongly reduced
- Steady state levels of control RNAs (not targets of Igf2bp1) (ES2 cells [1]; ES2, 7773, 24 hours): not significantly affected
- Cell proliferation (ES2 cells [2]): remarkably unaffected
- Cytotoxicity (H1299 cells [3]; H1299, 20, 10 or 5 mM 7773, 48 hours): virtually no effect
- Cell viability (H1299 cells [3]; H1299, 7773, 48 hours): does not affect
- Steady state level of Kras mRNA (H1299 cells [4]; H1299, 20 mM 7773, 12 hours): already reduced
- Steady state levels of CD44, Kras, cMyc and SRF RNA (H1299 cells [4]; H1299, 20 mM 7773, 24 hours): significantly reduced
- Steady state levels of control RNAs (not targets of Igf2bp1) (H1299 cells [4]; H1299, 20 mM 7773, 24 hours): not significantly affected
- Kd (Igf2bp1 RRM12 di-domain): 1.5 µM
- Cell proliferation (H1299 cells [5]): remarkably unaffected
- Inhibition of wound healing (ES2 cells [6]; ES2, 5 mM 7773): discernible inhibition
- Inhibition of wound healing (ES2 cells [6]; ES2, 20 mM 7773): strongly inhibited
- Effect on migration of cells expressing GFP alone [7]: unaffected
- Kras protein expression [8]: dose-dependent reduction
- Inhibition of wound healing (HEK293 cells [9]; HEK293, 5 mM 7773): discernible inhibition
- Inhibition of wound healing (HEK293 cells [9]; HEK293, 20 mM 7773): strongly inhibited
- Kd (Igf2bp1 KH34 di-domain): 7.2 µM
- Cell proliferation (HEK293 cells [10]): remarkably unaffected
- Binding to Igf2bp2 (MST) (Igf2bp2): did not significantly bind
- Inhibition of wound healing (H1299 cells [11]; H1299, 5 mM 7773): discernible inhibition
- Inhibition of wound healing (H1299 cells [11]; H1299, 20 mM 7773): strongly inhibited
